Data from publication PMC4546510 (ACS chemical biology, 2015).
Read-outs that look alike come from different tables or passages of the source.

Tests used:
[1] = target: full-length NS3 (helicase) (Hepatitis C virus genotype 1a, UniProt P26664); format: biochemical
[2] = test system: HCVsg 1b(con1)-Rluc replicon; test: microbe, parasite or virus in culture; format: cell-based, hepatitis C virus genotype 1b (con1); details: read-out: EC50 (concentration needed to reduce cellular HCVsg 1b(con1)-Rluc replicon content by 50%)
Cell viability assay = format: cell-based; details: human
[3] = test system: HCVsg 1b(con1)-Rluc replicon; format: cell-based, hepatitis C virus genotype 1b; details: combined with HPI; for Volume under the synergy plot (difference from Bliss additivity): MacSynergy II, 95% confidence; for Interaction with HPI (deviation from additive effects): Prichard & Shipman definitions
Huh7.5 cell viability = test: Cell viability assay; format: cell-based
HCVsg 2a(JFH1) replicon [4] = test: HCVsg 2a; format: cell-based, hepatitis C virus genotype 2a (JFH1); details: Renilla luciferase reporter
[5] = test system: subgenomic dengue virus replicon (DENVsg 2); test: Dengue virus subgenomic replicon assay in BHK-21 cells; format: cell-based, dengue virus strain 2; details: Renilla luciferase-tagged replicon
HCVsg 2a(JFH1) replicon [6] = test: Colony formation assay, Huh7.5 cells with HCVsg 2a; format: cell-based, hepatitis C virus genotype 2a; details: genotype 2a replicon, G418 selection
[7] = test system: HCVsg 1b(con1)-Rluc replicon; format: cell-based, hepatitis C virus genotype 1b
scNS4A-NS3 Q526A = test: NS3 depsipeptide cleavage; format: biochemical, hepatitis C virus genotype 1a
scNS4A-NS3 H528A = test: NS3 depsipeptide cleavage; format: biochemical, hepatitis C virus genotype 1a
scNS4A-NS3 V524A = test: NS3 depsipeptide cleavage; format: biochemical, hepatitis C virus genotype 1a; details: Val524 mutation
[8] = target: recombinant full-length NS3 not fused to NS4A (Hepatitis C virus genotype 1a, UniProt P26664); test: NS3 depsipeptide cleavage; format: biochemical; details: in the presence and absence of NS4A
[9] = test system: BHK DENV-Rluc cell viability
[10] = test system: HCVsg 1b(con1) replicon harboring R155K; details: 3 days
[11] = test system: HCVsg 1b(con1) replicon harboring the R155K and V36A mutations; details: 3 days
[12] = Hepatitis C virus, Huh7.5, 72 h

Structure (SMILES): CC(C)(C)OC(=O)N[C@H]1CCCCC/C=C\[C@@H]2C[C@@]2(C(=O)NS(=O)(=O)C2CC2)NC(=O)[C@@H]2C[C@@H](OC(=O)N3Cc4cccc(F)c4C3)CN2C1=O [Danoprevir]
- Inhibition of NS3 in an MBHA ([1]; full-length NS3): do not inhibit
- EC50 [2, 12]: 0.002 ± 0.0005 µM
- CC50 (Cell viability assay): 100 µM
- Volume under the synergy plot (difference from Bliss additivity) [3]: 17 μM^2%
- Interaction with HPI (deviation from additive effects) [3]: Minor, insignificant synergy

Structure (SMILES): Cc1ccc2nc(-c3ccc4nc(-c5ccc(NC(=O)c6cc(C(F)(F)F)cc(C(F)(F)F)c6)cc5)sc4c3)sc2c1S(=O)(=O)O.N [HPI]
- Inhibition of NS3 in an MBHA ([1]; full-length NS3): inhibits full-length NS3 in an MBHA
- IC50 ([1]; read-out: IC50, molecular beacon-based helicase assay, NS3-catalyzed DNA unwinding, normalized initial velocities): 6 ± 2 µM
- EC50 ([2]; Huh7.5 cells, 72 hours, relative to DMSO): 15 ± 4 µM
- Effect on viability of cells containing HCVsg 1b(con1) or HCVsg 2a(JFH1) (Huh7.5 cell viability; concentrations up to 100 μM): did not affect the viability
- CC50 (Huh7.5 cell viability; read-out: CC50 (concentration needed to reduce cell viability by 50%), Huh7.5 cells): > 100 µM
- Activity against the HCVsg 2a(JFH1) replicon (HCVsg 2a(JFH1) replicon [4]): little activity
- Antiviral activity on subgenomic dengue virus replicon [5]: no antiviral activity
- Antiviral activity in colony-formation assay (HCVsg 2a(JFH1) replicon [6]): some antiviral activity
- Change in sensitivity of the cell line to the compound after selection ([7]; incubated with HPI twice as long as 3 weeks (6 weeks)): ≤ 2 fold
- Sensitivity of cells that became resistant to telaprevir ([7]; telaprevir-selected cells, data not shown): retained sensitivity
- Effect of substitution on ability to inhibit the NS3 protease (scNS4A-NS3 Q526A): neither the Q526A nor H528A substitutions influenced
- Effect of substitution on ability to inhibit the NS3 protease (scNS4A-NS3 H528A): neither the Q526A nor H528A substitutions influenced
- Effect of mutation on ability to inhibit NS3-catalyzed peptide cleavage (scNS4A-NS3 V524A): do not affect
- Amount needed to inhibit NS3-catalyzed peptide cleavage versus scNS4A-NS3 [8]: considerably more HPI was needed
- Effect on cell viability, dengue replicon cells [9]: no effect on cell viability
- Activity on telaprevir-resistant replicon versus HCVsg 1b(con1) replicon [10]: equally active
- Activity on telaprevir-resistant replicon versus HCVsg 1b(con1) replicon [11]: equally active

Structure (SMILES): CCC[C@H](NC(=O)[C@@H]1[C@H]2CCC[C@H]2CN1C(=O)[C@@H](NC(=O)[C@@H](NC(=O)c1cnccn1)C1CCCCC1)C(C)(C)C)C(=O)C(=O)NC1CC1 [Telaprevir]
- Inhibition of NS3 in an MBHA [1]: do not inhibit
- EC50 [2, 12]: 0.81 ± 0.4 µM
- CC50 (Cell viability assay; replicon-bearing Huh7.5 cells): 45 ± 4 µM
- Sensitivity of cells that were incubated with HPI ([7]; HPI-selected cells, data not shown): retained sensitivity
- Resistance after incubation with the compound ([7]; incubated with telaprevir for 3 weeks): became resistant
- Interaction with HPI (deviation from additive effects) [3]: no significant deviations from additive effects

Structure (SMILES): CC(C)(C)NC(=O)N[C@H](C(=O)N1C[C@H]2[C@@H]([C@H]1C(=O)NC(CC1CCC1)C(=O)C(N)=O)C2(C)C)C(C)(C)C (some centres unmarked) [Boceprevir]
- Inhibition of NS3 in an MBHA [1]: do not inhibit
- EC50 [2, 12]: 0.64 ± 0.1 µM
- CC50 (Cell viability assay; replicon-bearing Huh7.5 cells): > 100 µM
- Interaction with HPI (deviation from additive effects) [3]: no significant deviations from additive effects

Structure (SMILES): C=C[C@@H]1C[C@]1(NC(=O)[C@@H]1C[C@@H]2CN1C(=O)[C@H](C(C)(C)C)NC(=O)O[C@@H]1C[C@H]1CCCCCc1nc3ccc(OC)cc3nc1O2)C(=O)NS(=O)(=O)C1CC1 [Grazoprevir]
- EC50 [2, 12]: 0.00076 ± 0.00013 µM
- CC50 (Cell viability assay; replicon-bearing Huh7.5 cells): 54 ± 5 µM
- Volume under the synergy plot (difference from Bliss additivity) [3]: 101 μM^2%
